The supplement of paper PMC10307832

Assays:
Test in all cases: relative viability (nuclei count vs DMSO), 5 days (fraction); higher = more cells survive
[1] = system: A-427
Method in brief: (§1)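 Lung cancer cell lines in 1536-well plates were dosed by pin tool the day after seeding, either with one drug alone or with a fixed anchor-drug dose plus five library-drug doses (not always all listed) in √10 steps. After 5 days, cells were fixed and their nuclei stained in one step (final 0.05% Triton X-100, 1% formaldehyde, 1 ug/ml Hoechst), then counted on 4× images. Relative viability is the nuclei count in treated wells divided by that in vehicle wells. Values are medians of duplicate plates.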

[2] = system: COR-L 105
Method in brief: as §1

[3] = system: H3255
Method in brief: as §1

[4] = system: HCC-44
Method in brief: as §1

[5] = system: HCC-827
Method in brief: as §1

[6] = system: LCLC-103H
Method in brief: as §1

[7] = system: LOU-NH91
Method in brief: as §1

[8] = system: LXF-289
Method in brief: as §1

[9] = system: NCI-H1792
Method in brief: as §1

[10] = system: NCI-H1793
Method in brief: as §1

[11] = system: NCI-H1915
Method in brief: as §1

[12] = system: NCI-H1944
Method in brief: as §1

[13] = system: NCI-H1975
Method in brief: as §1

[14] = system: NCI-H1993
Method in brief: as §1

[15] = system: NCI-H2023
Method in brief: as §1

[16] = system: NCI-H2087
Method in brief: as §1

[17] = system: NCI-H2170
Method in brief: as §1

[18] = system: NCI-H358
Method in brief: as §1

[19] = system: NCI-H520
Method in brief: as §1

[20] = system: NCI-H522
Method in brief: as §1

[21] = system: SK-MES-1
Method in brief: as §1

[22] = system: SW 1573
Method in brief: as §1

[23] = system: SW 900
Method in brief: as §1

SMILES: Cc1csc(=NC2CCCCC2)n1/N=C/c1ccc(O)c(O)c1O [MIM1] + O=C(c1cc(Cc2n[nH]c(=O)c3ccccc23)ccc1F)N1CCN(C(=O)C2CC2)CC1 [Olaparib] (partner 8 µM)
- relative viability ([1]; first compound 0.2 µM): 0.757
- relative viability ([1]; first compound 0.6325 µM): 0.738
- relative viability ([1]; first compound 2 µM): 0.71
- relative viability ([1]; first compound 6.325 µM): 0.671
- relative viability ([1]; first compound 20 µM): 0.281
- relative viability ([2]; first compound 0.2 µM): 0.694
- relative viability ([2]; first compound 0.6325 µM): 0.673
- relative viability ([2]; first compound 2 µM): 0.63
- relative viability ([2]; first compound 6.325 µM): 0.554
- relative viability ([2]; first compound 20 µM): 0.564
- relative viability ([3]; first compound 0.2 µM): 0.535
- relative viability ([3]; first compound 0.6325 µM): 0.541
- relative viability ([3]; first compound 2 µM): 0.518
- relative viability ([3]; first compound 6.325 µM): 0.473
- relative viability ([3]; first compound 20 µM): 0.253
- relative viability ([4]; first compound 0.2 µM): 1.02
- relative viability ([4]; first compound 0.6325 µM): 0.975
- relative viability ([4]; first compound 2 µM): 0.859
- relative viability ([4]; first compound 6.325 µM): 0.675
- relative viability ([4]; first compound 20 µM): 0.455
- relative viability ([5]; first compound 0.2 µM): 0.653
- relative viability ([5]; first compound 0.6325 µM): 0.626
- relative viability ([5]; first compound 2 µM): 0.639
- relative viability ([5]; first compound 6.325 µM): 0.37
- relative viability ([5]; first compound 20 µM): 0.241
- relative viability ([6]; first compound 0.2 µM): 0.814
- relative viability ([6]; first compound 0.6325 µM): 0.771
- relative viability ([6]; first compound 2 µM): 0.782
- relative viability ([6]; first compound 6.325 µM): 0.532
- relative viability ([6]; first compound 20 µM): 0.336
- relative viability ([7]; first compound 0.2 µM): 0.92
- relative viability ([7]; first compound 0.6325 µM): 0.922
- relative viability ([7]; first compound 2 µM): 0.596
- relative viability ([7]; first compound 6.325 µM): 0.589
- relative viability ([7]; first compound 20 µM): 0.369
- relative viability ([8]; first compound 0.2 µM): 1.04
- relative viability ([8]; first compound 0.6325 µM): 0.844
- relative viability ([8]; first compound 2 µM): 1.13
- relative viability ([8]; first compound 6.325 µM): 0.915
- relative viability ([8]; first compound 20 µM): 0.179
- relative viability ([9]; first compound 0.2 µM): 0.469
- relative viability ([9]; first compound 0.6325 µM): 0.368
- relative viability ([9]; first compound 2 µM): 0.454
- relative viability ([9]; first compound 6.325 µM): 0.279
- relative viability ([9]; first compound 20 µM): 0.398
- relative viability ([10]; first compound 0.2 µM): 0.942
- relative viability ([10]; first compound 2 µM): 0.899
- relative viability ([10]; first compound 6.325 µM): 0.686
- relative viability ([10]; first compound 20 µM): 0.839
- relative viability ([11]; first compound 0.2 µM): 0.255
- relative viability ([11]; first compound 0.6325 µM): 0.248
- relative viability ([11]; first compound 2 µM): 0.236
- relative viability ([11]; first compound 6.325 µM): 0.203
- relative viability ([11]; first compound 20 µM): 0.133
- relative viability ([12]; first compound 0.2 µM): 0.405
- relative viability ([12]; first compound 0.6325 µM): 0.422
- relative viability ([12]; first compound 2 µM): 0.352
- relative viability ([12]; first compound 6.325 µM): 0.32
- relative viability ([12]; first compound 20 µM): 0.131
- relative viability ([13]; first compound 0.2 µM): 0.737
- relative viability ([13]; first compound 0.6325 µM): 0.755
- relative viability ([13]; first compound 2 µM): 0.778
- relative viability ([13]; first compound 6.325 µM): 0.307
- relative viability ([13]; first compound 20 µM): 0.17
- relative viability ([14]; first compound 0.2 µM): 1
- relative viability ([14]; first compound 0.6325 µM): 0.819
- relative viability ([14]; first compound 2 µM): 0.949
- relative viability ([14]; first compound 6.325 µM): 0.873
- relative viability ([14]; first compound 20 µM): 0.432
- relative viability ([15]; first compound 0.2 µM): 0.501
- relative viability ([15]; first compound 0.6325 µM): 0.496
- relative viability ([15]; first compound 2 µM): 0.43
- relative viability ([15]; first compound 6.325 µM): 0.255
- relative viability ([15]; first compound 20 µM): 0.0641
- relative viability ([16]; first compound 0.2 µM): 0.535
- relative viability ([16]; first compound 0.6325 µM): 0.701
- relative viability ([16]; first compound 2 µM): 0.702
- relative viability ([16]; first compound 6.325 µM): 0.481
- relative viability ([16]; first compound 20 µM): 0.241
- relative viability ([17]; first compound 0.2 µM): 0.539
- relative viability ([17]; first compound 0.6325 µM): 0.533
- relative viability ([17]; first compound 2 µM): 0.528
- relative viability ([17]; first compound 6.325 µM): 0.269
- relative viability ([17]; first compound 20 µM): 0.141
- relative viability ([18]; first compound 0.2 µM): 0.558
- relative viability ([18]; first compound 0.6325 µM): 0.533
- relative viability ([18]; first compound 2 µM): 0.516
- relative viability ([18]; first compound 6.325 µM): 0.379
- relative viability ([18]; first compound 20 µM): 0.123
- relative viability ([19]; first compound 0.2 µM): 0.333
- relative viability ([19]; first compound 0.6325 µM): 0.346
- relative viability ([19]; first compound 2 µM): 0.349
- relative viability ([19]; first compound 6.325 µM): 0.242
- relative viability ([19]; first compound 20 µM): 0.209
- relative viability ([20]; first compound 0.2 µM): 0.597
- relative viability ([20]; first compound 0.6325 µM): 0.625
- relative viability ([20]; first compound 2 µM): 0.587
- relative viability ([20]; first compound 6.325 µM): 0.725
- relative viability ([20]; first compound 20 µM): 0.466
- relative viability ([21]; first compound 0.2 µM): 0.743
- relative viability ([21]; first compound 0.6325 µM): 0.657
- relative viability ([21]; first compound 2 µM): 0.548
- relative viability ([21]; first compound 6.325 µM): 0.259
- relative viability ([21]; first compound 20 µM): 0.108
- relative viability ([22]; first compound 0.2 µM): 0.515
- relative viability ([22]; first compound 0.6325 µM): 0.471
- relative viability ([22]; first compound 2 µM): 0.608
- relative viability ([22]; first compound 6.325 µM): 0.321
- relative viability ([22]; first compound 20 µM): 0.1
- relative viability ([23]; first compound 0.2 µM): 0.968
- relative viability ([23]; first compound 0.6325 µM): 0.819
- relative viability ([23]; first compound 2 µM): 0.852
- relative viability ([23]; first compound 6.325 µM): 0.209
- relative viability ([23]; first compound 20 µM): 0.181
